# Measured values as given in ChEMBL document CHEMBL3856241, “Discovery of novel 5-hydroxy-4-pyridone-3-carboxy acids as potent inhibitors of influenza Cap-dependent endonuclease” (Bioorg Med Chem Lett, 2016).
# Assay: Antiviral activity against Influenza A virus A/WSN/33(H1N1) infected in MDCK cells assessed as inhibition of virus-induced cytopathic effect after 3 days by WST-8 assay
# Type: functional, cell-based, Influenza A virus (A/WSN/1933(H1N1))
# Conditions: 72 h
row,SMILES,EC50
1,O=C(O)c1cn(CC2(n3ccc4cccnc43)CCCC2)cc(O)c1=O,0.201 µM

# Assay: Inhibition of Influenza A virus A/WSN/33(H1N1) cap-dependent endonuclease using 3'-BHQ2 labeled 30-mer RNA as substrate after 60 mins by fluorescence assay
# Design: species or system Influenza A virus (A/WSN/1933(H1N1))
# Conditions: not given
row,SMILES,IC50
1,O=C(O)c1cn(CC2(n3ccc4cccnc43)CCCC2)cc(O)c1=O,0.00512 µM
2,O=c1ccn(Cc2ccc(F)cc2)cc1O,> 500 µM
3,O=C(O)c1cn(CCc2ccccc2)cc(O)c1=O,0.714 µM
4,O=C(O)c1cn(CCCc2ccccc2)cc(O)c1=O,1.42 µM
5,O=C(O)c1cn(CC2(c3ccccc3)CC2)cc(O)c1=O,0.402 µM
6,O=C(O)c1cn(CC2(c3ccc(Cl)cc3)CCCC2)cc(O)c1=O,0.0156 µM
7,O=C(O)c1cn(CC2(c3ccc4cccnc4c3)CCCC2)cc(O)c1=O,0.0164 µM
8,Cn1cc(C2(Cn3cc(O)c(=O)c(C(=O)O)c3)CCCC2)c2ccccc21,0.0161 µM
9,O=C(O)c1cn(CC2(c3ccnc(-n4cccn4)c3)CCCC2)cc(O)c1=O,0.0179 µM
10,O=C(O)c1cn(Cc2ccccc2)cc(O)c1=O,2.1 µM
11,O=C(O)c1cn(CC2(c3cccc(Oc4ccccc4)c3)CCCC2)cc(O)c1=O,0.043 µM
12,O=C(O)c1cn(CCc2ccc(Cl)cc2)cc(O)c1=O,0.824 µM
13,O=C(O)c1cn(Cc2ccc(F)cc2)cc(O)c1=O,3.23 µM
14,O=C(O)c1cn(CC2(c3ccccc3Cl)CCCC2)cc(O)c1=O,0.0361 µM
15,O=C(O)c1cn(CCc2ccc(-c3ccc(F)cc3)cc2)cc(O)c1=O,3.73 µM
16,O=C(O)c1cn(CC2(c3ccc4c(c3)OCO4)CCCC2)cc(O)c1=O,0.0163 µM
17,Cn1cc(C2(Cn3cc(O)c(=O)c(C(=O)O)c3)CCCC2)c2ncccc21,0.0463 µM
18,O=C(O)c1cn(CC2(c3ccccc3)CCC2)cc(O)c1=O,0.105 µM
19,O=C(O)c1cn(CC2(c3ccc4ccccc4c3)CCCC2)cc(O)c1=O,0.0284 µM
20,O=C(O)c1cn(Cc2ccc(F)cc2)ccc1=O,> 500 µM
21,O=C(O)c1cn(CCc2ccccc2Cl)cc(O)c1=O,0.242 µM
22,O=C(O)c1cn(CCCCc2ccccc2)cc(O)c1=O,2.81 µM
23,O=C(O)c1cn(CC2(c3ccccc3)CCCCC2)cc(O)c1=O,0.0618 µM
24,O=C(O)c1cn(CCc2cccc(Cl)c2)cc(O)c1=O,0.43 µM
25,O=C(O)c1cn(CC2(c3cccc(Cl)c3)CCCC2)cc(O)c1=O,0.0092 µM
26,O=C(O)c1cn(CCc2ccc(O)cc2)cc(O)c1=O,2.49 µM
27,O=C(O)c1cn(-c2ccc(F)cc2)cc(O)c1=O,6.51 µM
28,O=C(O)c1cn(CC2(c3ccccc3)CCCC2)cc(O)c1=O,0.0607 µM
